Series [1] has as its target T1, hOAT (Homo sapiens, UniProt P04181).
T1 construct: made in house
T1 sequence (P04181 with tags, fused parts or gaps): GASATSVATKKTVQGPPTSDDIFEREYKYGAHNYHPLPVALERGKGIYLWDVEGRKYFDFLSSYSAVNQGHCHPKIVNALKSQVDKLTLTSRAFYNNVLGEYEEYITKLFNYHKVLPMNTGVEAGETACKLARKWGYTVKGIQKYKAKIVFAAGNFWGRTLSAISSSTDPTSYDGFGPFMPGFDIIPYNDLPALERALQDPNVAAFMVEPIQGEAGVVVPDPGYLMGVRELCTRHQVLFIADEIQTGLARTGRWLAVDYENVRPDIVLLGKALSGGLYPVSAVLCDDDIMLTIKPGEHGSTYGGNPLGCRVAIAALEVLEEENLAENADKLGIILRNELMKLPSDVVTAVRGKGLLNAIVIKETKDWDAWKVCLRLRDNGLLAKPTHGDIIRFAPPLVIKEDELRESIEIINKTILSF
The series can be described thus: Coupled enzyme assay, time-dependent inactivation of hOAT. It counts as biochemical. Particulars: for Ki / kinact / kinact/KI: hOAT. Here is the method: (§1) hOAT and PYCR1 were expressed, grown, and purified according to literature procedures.^3-4 GABA-AT was isolated from pig brains and purified according to a literature procedure.^5 Coupled enzyme assays for GABA-AT, hOAT, Ala-AT, and Asp-AT were carried out according to previous procedures.^6-7

The next series has as its target T2, GABA-AT (Sus scrofa, UniProt P80147).
T2 construct: GABA-AT was isolated from pig brains and purified according to a literature procedure; from tissue; host or cells: pig brain
Briefly: Coupled enzyme assay, time-dependent inactivation of GABA-AT. The series is classed as biochemical, pig. Here is the method: as §1

Series [2] addresses T1, hOAT. The series can be described thus: Time-dependent dialysis (reactivation) of inhibited hOAT. The series is classed as biochemical. Particulars: hOAT partially or fully inhibited (0.6-2.0 equivalents of 14); up to 91 h of dialysis. Here is the method:
Previously, five-membered ring analogs 5 and 9 were identified as partially irreversible inhibitors of GABA-AT, with the formation of the tight-binding adducts.^29-30 Thus, time-dependent reactivation experiments of hOAT for cyclohexene analog 14 were carried out to determine if similar reversible components were also involved during the inactivation. After hOAT activity was partially or fully abolished by 0.6-2.0 equivalents of 14, aliquots at different time intervals were collected and assayed for the return of enzyme activity.
The dialysis experiment was conducted using previous protocols.^6, 8-9

In series [3] the target is T1, hOAT. The note with it: cited from earlier work.
A further series in a line: in vivo PK profiles. The note with it: for Cmax: read-out: C0/Cmax; for Kp at 0.25 h: read-out: B/P ratio @0.25 h.
The target in series [4] is T1, hOAT. The series can be described thus: Partition ratio by titrating hOAT with inactivator. The series is classed as biochemical. Particulars: turnover number minus one. From the text:
Usually, the partition ratio is used to determine the ratio of degradation and inactivation, calculated by titrating the enzyme with varying equivalents of inactivator. Ideally, a linear relationship (between enzyme activity remaining and equivalents of compounds) can be extrapolated to yield the exact equivalents (the intercept with the x-axis, turnover number) required to inactivate the enzyme completely. Since this obtained number includes the one molecule of inactivator required to inactivate one enzyme monomer, the partition ratio is the turnover number minus one. Therefore, the partition ratios of 5 and 14 were determined by titrating hOAT with varying equivalents of inactivators (FIG. 21). From this, we determined the partition ratio of 5 to be 4.9 and the partition ratio of 14 to be 0.6. The enlarged ring not only enhances the potency and selectivity against hOAT but also improves the efficiency of the inactivation.
The partition ratio was calculated using previous protocols.^6, 8-9

The test system of series [5] is alanine aminotransferase (Ala-AT). The series can be described thus: Coupled enzyme assay, inhibition of Ala-AT. The note with it: at high concentrations, up to 20 mM. It counts as biochemical. Here is the method:
as §1

The subject of series [6] is aspartate aminotransferase (Asp-AT). The series can be described thus: Coupled enzyme assay, inhibition of Asp-AT. It counts as biochemical. Particulars: at high concentrations, up to 20 mM. Here is the method:
as §1

In series [7] the target is T1, hOAT. Briefly: Fluoride ion release on inactivation of hOAT. The series is classed as biochemical. Particulars: for F^− Release: enzyme 1.34 μM monomer; for Fluoride ions released per active site: excess of inactivator. An excerpt: Different equivalents of fluoride ions can be released in PLP and PMP turnover pathways. If PMP is formed in the turnover mechanism, it cannot be converted back to PLP in the absence of α-KG, which results in at most two equivalents of fluoride ion released (pathway a); more equivalents of fluoride ion would be released in the presence of α-KG if PMP is formed after the fluoride ion release step (pathway a1). If PLP is regenerated during the turnover mechanism, at least two equivalents of fluoride ions will be released in the absence of α-KG (pathway b), which should be close to the equivalents in the presence of α-KG. Based on the partition ratio and the confirmed inactivation mechanism for 14, the theoretical equivalents of fluoride ions, which are released per enzyme active site in different turnover pathways, can be calculated in the presence/absence of α-KG (Table 3). The concentration of released fluoride ions can be monitored by a fluoride ion-selective electrode. When OAT was inactivated with an excess of 14, 2.95 equivalents of fluoride ions were released in the presence of α-KG and 2.66 equivalents of fluoride ions were released in the absence of α-KG (Table 3).
The fluoride ion release assay was conducted using previous protocols.^2 The final concentration of hOAT in the sample was determined to be 61.7±4.1 ug/mL (monomer, 1.34±0.12 μM) via BSA assay and calculation of dilution. A calibration curve of voltage (V, mV) was generated from varying concentrations of NaF (F, μM) to get the equation: F^−=10^((V−181.4)/−54.21). For accurate detection of fluoride ion concentration, 2.0 μM of fluoride ion was added to each control and sample. The number of fluoride ions released per active site was calculated by the ratio of the fluoride ion release concentration and hOAT concentration.

The mark [8] stands for this setting: values marked b from the slope of kobs vs [I], read-out: kinact/KI (converted).

Like-named read-outs stand apart in the source and are kept apart here.

T2 sequence (P80147 29-500): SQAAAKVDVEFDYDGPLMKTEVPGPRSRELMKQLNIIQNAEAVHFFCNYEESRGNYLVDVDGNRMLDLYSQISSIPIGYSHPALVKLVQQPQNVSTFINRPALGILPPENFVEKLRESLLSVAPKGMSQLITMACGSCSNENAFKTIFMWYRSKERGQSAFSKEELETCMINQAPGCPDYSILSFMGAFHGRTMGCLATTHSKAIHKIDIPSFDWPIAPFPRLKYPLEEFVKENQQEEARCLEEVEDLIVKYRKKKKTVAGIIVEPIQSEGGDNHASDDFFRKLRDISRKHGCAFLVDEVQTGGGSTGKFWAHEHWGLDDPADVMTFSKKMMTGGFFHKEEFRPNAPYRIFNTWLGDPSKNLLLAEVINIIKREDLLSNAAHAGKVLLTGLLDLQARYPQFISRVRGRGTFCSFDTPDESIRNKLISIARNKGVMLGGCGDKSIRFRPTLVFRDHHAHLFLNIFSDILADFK

In the case of `N[C@H]1CC(C(=O)O)=CCC1=C(F)F` [Compound 15, (S)-5-Amino-4-(difluoromethylene)cyclohex-1-ene-1-carboxylic acid], on hOAT [1], the Ki was 0.098 ± 0.014 mM, the kinact is 0.0009 s⁻¹ and the kinact/KI is 9.17 M⁻¹ s⁻¹. Also, on GABA-AT, the Ki is > 2.49 mM and the inactivation rate constant (kinact) was > 0.00367 s⁻¹. Besides, at GABA-AT (setting [8]), the kinact/KI was 1.45 M⁻¹ s⁻¹.
On to `N[C@H]1C[C@H](C(=O)O)CCC1=C(F)F` [Compound 13, (1R,3S)-3-Amino-4-(difluoromethylene)cyclohexane-1-carboxylic acid], for which the Ki on hOAT [1] is 1.48 ± 0.21 mM; on GABA-AT, > 13.1 mM. Besides, the kinact is 0.0015 s⁻¹ on hOAT [1] and > 0.00317 s⁻¹ on GABA-AT. The kinact/KI is 1.07 M⁻¹ s⁻¹ at hOAT [1] and 0.25 M⁻¹ s⁻¹ on GABA-AT (setting [8]).
On to `N[C@H]1C[C@@H](C(=O)O)CCC1=C(F)F` [Compound 12, (1S,3S)-3-amino-4-(difluoromethylene)cyclohexane-1-carboxylic acid], for which, at hOAT [1], the Ki was 1.27 ± 0.2 mM, the kinact was 0.00193 s⁻¹ and the kinact/KI is 1.52 M⁻¹ s⁻¹. On GABA-AT, the Ki worked out at 1.31 ± 0.4 mM and the inactivation rate constant (kinact) was 0.000417 s⁻¹. For the same compound, the kinact/KI at GABA-AT (setting [8]) was 0.317 M⁻¹ s⁻¹.
Turning to `N[C@H]1C[C@@H](C(=O)O)CC1=C(F)F` [Compound 5, reference compound], the “return of enzyme activity on dialysis” value at hOAT [2] is “fully irreversible inhibitor”.
For the compound `N[C@H]1C=C(C(=O)O)CC1=C(F)F` [Compound 9, reference compound], at hOAT [3] (from ref 29), the kinact/KI is 127 M⁻¹ s⁻¹. Also, on hOAT [3] (from ref 40), the Ki is 0.065 ± 0.01 mM and the kinact/KI was 14.5 M⁻¹ s⁻¹. In “in vivo PK profiles” (IV, 3 mg/kg), this compound yielded an AUCinf of 653.80 ng·h/mL, an AUClast of 634.12 ng·h/mL, a C0/Cmax of 2376.08 ng/mL and a CL of 76.48 mL/min/kg. For the same compound, in “in vivo PK profiles” (IV, 3 mg/kg), the T1/2 turned out to be 30.6 min and the VSS came out at 1.75 L/kg. Further, in the series “in vivo PK profiles” (PO, 10 mg/kg), the “% F” value is recorded as 42%, the AUCinf stood at 1006.60 ng·h/mL, the AUClast was determined as 881.20 ng·h/mL and the C0/Cmax was 1575.74 ng/mL. Besides, in the series “in vivo PK profiles” (PO, 10 mg/kg), the Tmax stood at 15 min.
With `N[C@H]1C=C(C(=O)O)CCC1=C(F)F` [Compound 14, (S)-3-Amino-4-(difluoromethylene)cyclohex-1-ene-1-carboxylic acid], at hOAT [1], the Ki was 0.012 ± 0.002 mM, the kinact is 0.00323 s⁻¹ and the kinact/KI is 270 M⁻¹ s⁻¹. Also, the “times more efficient/potent as an inactivator of hOAT than the comparator” value at hOAT [1] (versus 10 (b129 prints 7), by kinact/KI) is reported as 18.6. On GABA-AT, the Ki is > 1.24 mM and the kinact was > 0.006 s⁻¹. On GABA-AT (read-out: kinact/KI (converted)), the kinact/KI is 4.83 M⁻¹ s⁻¹. For the same compound, on GABA-AT (values marked b from the slope of kobs vs [I]), the kinact/KI is 0.29 ± 0.01^b mM^−1min^−1. In addition, the partition ratio on hOAT [4] is on record as 0.6. For the same compound, in [5], the “inhibitory activities against Ala-AT” value is “little or no inhibitory activities”. Further, in series [6], the “inhibitory activities against Asp-AT” value was “little or no inhibitory activities”. For the same compound, at hOAT [2], the “return of enzyme activity on dialysis” value was “no enzyme activity recovered”. In “in vivo PK profiles” (in vivo, iv, 10 mg/kg), the AUC(0-inf) is 2490 ng·h/mL, the AUC(0-t) worked out at 2470 ng·h/mL, the clearance stood at 66.9 mL/min/kg and the half-life is 9.6 min. In addition, the Cmax in “in vivo PK profiles” (in vivo, iv, 10 mg/kg) came to 14800 ng/mL. In the series “in vivo PK profiles” (in vivo, iv, 10 mg/kg, read-out: VSS), the Vd came to 0.64 L/kg. In the series “in vivo PK profiles” (in vivo, po, 30 mg/kg), the AUC(0-inf) was determined as 4330 ng·h/mL, the AUC(0-t) was found to be 4260 ng·h/mL, the bioavailability worked out at 58% and the Cmax was 3430 ng/mL. Besides, the Tmax in the series “in vivo PK profiles” (in vivo, po, 30 mg/kg, read-out: Tmax) was determined as 15 min. Besides, the Kp at 0.25 h in the series “in vivo PK profiles” (in vivo, IV, 10 mg/kg) worked out at 0.05. Moreover, the Kp at 0.25 h in the series “in vivo PK profiles” (in vivo, PO, 30 mg/kg) is 0.01. In addition, the DMPK properties entry in “in vivo PK profiles” (preliminary assessment) is “favorable DMPK properties”. On hOAT [7] (with α-KG), the “F^− Release” value was 3.95 µM and the “Fluoride ions released per active site” value is 2.95 equiv. Further, at hOAT [7] (without α-KG), the “F^− Release” value was determined as 3.57 µM and the “Fluoride ions released per active site” value was 2.66 equiv.

The values above are taken from US20240239738A1, “(S)-3-AMINO-4-(DIFLUOROMETHYLENE)CYCLOHEXENE AND CYCLOHEXANE CARBOXYLIC ACID AND USES THEREOF AS SELECTIVE INACTIVATORS OF HUMAN ORNITHINE AMINOTRANSFERASE (hOAT)” (Northwestern University, priority 2021, published 2024).
